What was measured:
A53T a-syn = experiment: Human a-syn immunoblot of cortical neuron lysates; format: cell-based; conditions: neuronal lysates
Method: Pregnant rats (E17) of the Sprague-Dawley strain were purchased from Envigo. Embryos were surgically removed from the mothers and cortices dissected in Hanks Balanced salt solution (Gibco). The meninges were removed, and cells were dissociated using a papain dissociation system (Worthington) before being resuspended in Neurobasal medium A supplemented with antibiotic-antimycotic solution (Gibco), L-glutamine substitute (GlutaMAX™; Gibco) and factor B27 (Gibco). Cells were plated on poly-D-lysine coated glass coverslips at a density of 5 × 10^5 cells/well, or on poly-D-lysine coated six-well cell culture plates at a density of 2 × 10^6 cells/well, and incubated at 37 °C in 5% CO2 with half media changes every 3 days. Cells were transduced with A53T a-syn or EV AAVs at 2 days post-isolation at a MOI of 3000. After 3 days, media containing AAV vectors were removed. […] Cells were fixed with 4% paraformaldehyde (PFA) for immunofluorescence staining or lysed for immunoblotting at 8 days post-isolation.
Infected neurons were scraped from 6-well dishes and lysed with RIPA buffer containing protease inhibitor cocktail (Roche). The Triton-X-100 soluble fraction was then separated from the insoluble pellet by centrifugation. Protein concentration was quantified using the DC protein assay (BioRad). […]

[1] = system: endogenous a-syn in SNCA triplication fibroblasts; experiment: a-syn immunofluorescence in SNCA triplication fibroblasts; format: cell-based, human
Text: Fig. 6 PDpep1.3 reduces endogenous a-syn levels and rescues lysosomal activity in human PD cell models. A Representative images of fibroblasts from a PD patient with SNCA triplication transduced with Scramble1.3-RFP or PDpep1.3-RFP (scale bars = 10 µm). B Quantification of relative a-syn fluorescence in RFP-positive fibroblasts. Bars represent means ± s.e.m. (one-way ANOVA, F(3, 36) = 6.159; P = 0.0017 followed by Dunnett’s post-test; n = 3). C Endolysosomal flux assay using confocal microscopy in SNCA triplication fibroblasts transduced with AAV-Scramble1.3-RFP or AAV-PDpep1.3-RFP. Cells were treated as indicated with Bafilomycin A1 (Baf). Bars represent means ± s.e.m. (nested one-way ANOVA, F(3, 10) = = 23.70; P < 0.0001 followed by Dunnett’s post-test; n = 3). D Representative images of human iPSC-derived dopaminergic neurons with A53T a-syn mutation or isogenic controls without a-syn mutation. These iPSC-derived dopaminergic neurons were transduced with Scramble1.3-RFP or PDpep1.3-RFP and immunostained with anti-a-syn, anti-TH, or anti-LAMP1 antibodies (scale bars = 5 μm). E Quantification of relative a-syn fluorescence intensity in RFP-positive A53T mutant and control iPSC-derived dopaminergic neurons. Bars represent means ± s.e.m. […] F Quantification of relative LAMP1 fluorescence intensity in RFP-positive A53T mutant and control iPSC-derived dopaminergic neurons. […]

**Q.** Which “Effect on total A53T a-syn protein” value (A53T a-syn) does the source give for DEEIERQLKALG [PDpep1.3] here?
**A.** The value was “corresponding reduction in total A53T a-syn protein levels”.

**Q.** And the “Effect on a-syn fluorescence in fibroblasts” value [1]?
**A.** Its value is “reduced a-syn fluorescence”.

**Q.** And the “Effect on a-syn levels in presence of Bafilomycin A1” value ([1]; + Bafilomycin A1)?
**A.** Its value is “could not reduce a-syn levels”.
